Experimental data reported in US9045493B2, “Furo[3,2-b]- and thieno[3,2-b]pyridin derivatives” (Merck Patent GmbH, priority 2012, dated 2015).

How the values were obtained:
IKKε = target: T1, IKKε (Homo sapiens, UniProt Q14164); assay: IKKε kinase assay (384-well Flashplate); assay type: biochemical; conditions: 10 μM ATP, 2 hours at 30° C.; read-out: IKKε enzyme assay IC50
T1 sequence (Q14164 1-716): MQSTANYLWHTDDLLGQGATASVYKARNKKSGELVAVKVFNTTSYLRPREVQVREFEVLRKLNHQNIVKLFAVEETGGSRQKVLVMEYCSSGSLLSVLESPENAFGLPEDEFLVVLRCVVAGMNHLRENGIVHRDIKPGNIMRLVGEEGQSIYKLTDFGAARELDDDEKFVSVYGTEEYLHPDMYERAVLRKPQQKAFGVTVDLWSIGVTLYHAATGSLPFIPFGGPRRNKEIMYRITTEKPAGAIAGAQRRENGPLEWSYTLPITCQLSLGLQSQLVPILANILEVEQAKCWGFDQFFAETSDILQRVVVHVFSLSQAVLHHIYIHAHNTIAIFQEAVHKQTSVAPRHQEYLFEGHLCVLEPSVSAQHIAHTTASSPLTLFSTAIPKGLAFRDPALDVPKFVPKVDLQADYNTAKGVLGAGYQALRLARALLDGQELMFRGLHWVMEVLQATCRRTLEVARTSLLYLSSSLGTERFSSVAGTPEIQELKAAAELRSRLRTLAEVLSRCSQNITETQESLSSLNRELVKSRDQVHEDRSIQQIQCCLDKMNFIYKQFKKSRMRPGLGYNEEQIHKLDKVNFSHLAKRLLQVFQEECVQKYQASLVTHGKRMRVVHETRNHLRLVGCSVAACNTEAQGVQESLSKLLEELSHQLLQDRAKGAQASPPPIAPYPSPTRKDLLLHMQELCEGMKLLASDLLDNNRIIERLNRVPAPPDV
Description: The kinase assay is performed either as 384-well Flashplate assay (for e.g. Topcount measurement).
1 nM IKKε, 800 nM biotinylated IκBα(19-42) peptide (Biotin-C6-C6-[…]) and 10 μM ATP (spiked with 0.3 μCi ^33P-ATP/well) are incubated in a total volume of 50 μl (10 mM MOPS, 10 mM Mg-acetat, 0.1 mM EGTA, 1 mM Dithiothreitol, 0.02% Brij35, 0.1% BSA, 0.1% BioStab, pH 7.5) with or without test compound for 2 hours at 30° C. The reaction is stopped with 25 μl 200 mM EDTA. After 30 Min at room temperature the liquid is removed and each well washed thrice with 100 μl 0.9% sodium chloride solution. […] Radioactivity is measured with Topcount (PerkinElmer). Results (e.g. IC50-values) are calculated with program tools provided by the IT-department (e.g. AssayExplorer, Symyx).

[1] = target: T2, TANK binding kinase (TBK1) (Homo sapiens, UniProt Q9UHD2); assay: TBK1 enzyme assay (384-well Flashplate kinase assay); assay type: biochemical; conditions: 10 μM ATP, 120 Min at 30° C.
T2 sequence (Q9UHD2 1-729): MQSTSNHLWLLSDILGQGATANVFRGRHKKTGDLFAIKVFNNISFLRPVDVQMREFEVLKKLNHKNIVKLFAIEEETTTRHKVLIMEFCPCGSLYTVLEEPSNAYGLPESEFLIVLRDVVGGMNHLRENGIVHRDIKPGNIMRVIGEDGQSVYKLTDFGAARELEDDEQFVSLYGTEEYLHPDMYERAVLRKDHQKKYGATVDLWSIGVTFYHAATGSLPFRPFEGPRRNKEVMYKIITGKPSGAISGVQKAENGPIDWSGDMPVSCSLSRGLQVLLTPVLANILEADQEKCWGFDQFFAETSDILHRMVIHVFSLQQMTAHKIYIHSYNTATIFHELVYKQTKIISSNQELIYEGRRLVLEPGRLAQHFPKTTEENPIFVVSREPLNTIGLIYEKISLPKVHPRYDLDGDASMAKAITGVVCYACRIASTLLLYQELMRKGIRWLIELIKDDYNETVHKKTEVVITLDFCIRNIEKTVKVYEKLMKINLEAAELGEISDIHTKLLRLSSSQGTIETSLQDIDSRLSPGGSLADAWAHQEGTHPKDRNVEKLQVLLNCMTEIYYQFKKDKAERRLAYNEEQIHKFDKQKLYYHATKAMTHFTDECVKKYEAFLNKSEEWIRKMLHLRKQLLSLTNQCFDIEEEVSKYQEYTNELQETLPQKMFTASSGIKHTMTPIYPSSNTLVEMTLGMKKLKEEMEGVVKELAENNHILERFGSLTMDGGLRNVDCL
Description: The kinase assay is performed as 384-well Flashplate assay (for e.g. Topcount measurement.
0.6 nM TANK binding kinase (TBK1), 800 nM biotinylated MELK-derived peptide (Biotin-Ah-Ah-[…]) and 10 μM ATP (spiked with 0.25 μCi ^33P-ATP/well) are incubated in a total volume of 50 μl (10 mM MOPS, 10 mM Mg-acetat, 0.1 mM EGTA, 1 mM DTT, 0.02% Brij35, 0.1% BSA, pH 7.5) with or without test compound for 120 Min at 30° C. The reaction is stopped with 25 μl 200 mM EDTA. After 30 Min at room temperature the liquid is removed and each well washed thrice with 100 μl 0.9% sodium chloride solution. Nonspecific reaction is determined in presence of 100 nM Staurosporine. Radioactivity is measured in a Topcount (PerkinElmer). Results (e.g. IC50-values) are calculated with program tools provided by the IT-department (e.g. AssayExplorer, Symyx).

`N#Cc1cc(-c2ccnc3cc(-c4ccc(N5CCOCC5)cc4)oc23)ccc1OC1CCOCC1` [Compound A1, 5-[2-(4-Morpholin-4-yl-phenyl)-furo[3,2-b]pyridin-7-yl]-2-(tetrahydro-pyran-4-yloxy)-benzonitrile] gave an IC50 (IKKε) of 3000 to 50000 nM and an IC50 [1] of 3000 to 50000 nM.
In the case of `N#Cc1cc(-c2ccnc3cc(-c4cccc(N5CCOCC5)c4)oc23)ccc1OC1CCOCC1` [Compound A2, 5-[2-(3-Morpholin-4-yl-phenyl)-furo[3,2-b]pyridin-7-yl]-2-(tetrahydro-pyran-4-yloxy)-benzonitrile], the IC50 (IKKε) is reported as < 300 nM and the IC50 [1] is reported as < 300 nM.
With `CCN(CCOC)C(=O)c1ccc(-c2cc3nccc(-c4ccc(OC5CCOCC5)c(C#N)c4)c3o2)cc1` [Compound A3, 4-{7-[3-cyano-4-(tetrahydro-pyran-4-yloxy)-phenyl]-furo[3,2-b]pyridin-2-yl}-N-ethyl-N-(2-methoxy-ethyl)-benzamide] the IC50 (IKKε) was < 300 nM and the IC50 [1] was < 300 nM.
Work on `CCOC(=O)c1ccc(-c2cc3nccc(-c4ccc(OC5CCOCC5)c(C#N)c4)c3o2)cc1` [Compound A4, 4-{7-[3-cyano-4-(tetrahydro-pyran-4-yloxy)-phenyl]-furo[3,2-b]pyridin-2-yl}-benzoic acid ethyl ester] yielded an IC50 (IKKε) of 300 to 3000 nM and an IC50 [1] of 300 to 3000 nM.
With `COc1ccccc1-c1cc2nccc(-c3ccc(OC4CCOCC4)c(C#N)c3)c2o1` [Compound A5, 5-[2-(2-methoxy-phenyl)-furo[3,2-b]pyridin-7-yl]-2-(tetrahydro-pyran-4-yloxy)-benzonitrile] the IC50 (IKKε) was < 300 nM and the IC50 [1] was < 300 nM.
In the case of `COc1cccc(-c2cc3nccc(-c4ccc(OC5CCOCC5)c(C#N)c4)c3o2)c1` [Compound A6, 5-[2-(3-methoxy-phenyl)-furo[3,2-b]pyridin-7-yl]-2-(tetrahydro-pyran-4-yloxy)-benzonitrile], the IC50 (IKKε) is reported as 300 to 3000 nM and the IC50 [1] is reported as 300 to 3000 nM.
With `COc1ccc(-c2cc3nccc(-c4ccc(OC5CCOCC5)c(C#N)c4)c3o2)cc1` [Compound A7, 5-[2-(4-methoxy-phenyl)-furo[3,2-b]pyridin-7-yl]-2-(tetrahydro-pyran-4-yloxy)-benzonitrile] the IC50 (IKKε) was 300 to 3000 nM and the IC50 [1] was 300 to 3000 nM.
With `COCCn1cc(-c2cc3nccc(-c4ccc(OC5CCOCC5)c(C#N)c4)c3o2)cn1` [Compound A8, 5-{2-[1-(2-methoxy-ethyl)-1H-pyrazol-4-yl]-furo[3,2-b]pyridin-7-yl}-2-(tetrahydro-pyran-4-yloxy)-benzonitrile] the IC50 (IKKε) was 300 to 3000 nM and the IC50 [1] was 3000 to 50000 nM.
In the case of `CN1CCN(c2cccc(-c3cc4nccc(-c5ccc(OC6CCOCC6)c(C#N)c5)c4o3)c2)CC1` [Compound A9, 5-{2-[3-(4-methyl-piperazin-1-yl)-phenyl]-furo[3,2-b]pyridin-7-yl}-2-(tetrahydro-pyran-4-yloxy)-benzonitrile], the IC50 (IKKε) is reported as < 300 nM and the IC50 [1] is reported as < 300 nM.
With `CN1CCN(c2ccc(-c3cc4nccc(-c5ccc(OC6CCOCC6)c(C#N)c5)c4o3)cc2)CC1` [Compound A10, 5-{2-[4-(4-methyl-piperazin-1-yl)-phenyl]-furo[3,2-b]pyridin-7-yl}-2-(tetrahydro-pyran-4-yloxy)-benzonitrile] the IC50 (IKKε) was < 300 nM and the IC50 [1] was < 300 nM.
`N#Cc1cc(-c2ccnc3cc(-c4cccc5[nH]cnc45)oc23)ccc1OC1CCOCC1` [Compound A13, 5-[2-(1H-benzoimidazol-4-yl)-furo[3,2-b]pyridin-7-yl]-2-(tetrahydro-pyran-4-yloxy)-benzonitrile] gave an IC50 (IKKε) of 300 to 3000 nM and an IC50 [1] of 300 to 3000 nM.
`N#Cc1cc(-c2ccnc3cc(-c4ccc5[nH]c(=O)[nH]c5c4)oc23)ccc1OC1CCOCC1` [Compound A14, 5-[2-(2-oxo-2,3-dihydro-1H-benzoimidazol-5-yl)-furo[3,2-b]pyridin-7-yl]-2-(tetrahydro-pyran-4-yloxy)-benzonitrile] was tested, and the IC50 (IKKε) was 3000 to 50000 nM and the IC50 [1] was 3000 to 50000 nM.
For `CNCCNC(=O)c1ccc(-c2cc3nccc(-c4ccc(OC5CCOCC5)c(C#N)c4)c3o2)cc1` [Compound A15, 4-{7-[3-cyano-4-(tetrahydro-pyran-4-yloxy)-phenyl]-furo[3,2-b]pyridin-2-yl}-N-(2-methylamino-ethyl)-benzamide], the IC50 (IKKε) was < 300 nM and the IC50 [1] was 300 to 3000 nM.
Work on `N#Cc1cc(-c2ccnc3cc(-c4ccc(C(=O)O)cc4)oc23)ccc1OC1CCOCC1` [Compound A16a, 4-{7-[3-Cyano-4-(tetrahydro-pyran-4-yloxy)-phenyl]-furo[3,2-b]pyridin-2-yl}-benzoic acid] yielded an IC50 (IKKε) of 300 to 3000 nM and an IC50 [1] of 300 to 3000 nM.
For `CN1CCN(C(=O)c2ccc(-c3cc4nccc(-c5ccc(OC6CCOCC6)c(C#N)c5)c4o3)cc2)CC1` [Compound A17, 5-{2-[4-(4-Methyl-piperazine-1-carbonyl)-phenyl]-furo[3,2-b]pyridin-7-yl}-2-(tetrahydro-pyran-4-yloxy)-benzonitrile], the IC50 (IKKε) was < 300 nM and the IC50 [1] was < 300 nM.
`N#Cc1cc(-c2ccnc3cc(-c4ccc(C(N)=O)cc4)oc23)ccc1OC1CCOCC1` [Compound A18, 4-{7-[3-cyano-4-(tetrahydro-pyran-4-yloxy)-phenyl]-furo[3,2-b]pyridin-2-yl}-benzamide] gave an IC50 (IKKε) of 3000 to 50000 nM and an IC50 [1] of 3000 to 50000 nM.
In the case of `CNC(=O)c1ccc(-c2cc3nccc(-c4ccc(OC5CCOCC5)c(C#N)c4)c3o2)cc1` [Compound A19, 4-{7-[3-cyano-4-(tetrahydro-pyran-4-yloxy)-phenyl]-furo[3,2-b]pyridin-2-yl}-N-methyl-benzamide], the IC50 (IKKε) is reported as 300 to 3000 nM and the IC50 [1] is reported as 300 to 3000 nM.
`CCNC(=O)c1ccc(-c2cc3nccc(-c4ccc(OC5CCOCC5)c(C#N)c4)c3o2)cc1` [Compound A20, 4-{7-[3-cyano-4-(tetrahydro-pyran-4-yloxy)-phenyl]-furo[3,2-b]pyridin-2-yl}-N-ethyl-benzamide] showed an IC50 (IKKε) of 300 to 3000 nM and an IC50 [1] of 300 to 3000 nM.
Work on `CC(C)(C)OCCNC(=O)c1ccc(-c2cc3nccc(-c4ccc(OC5CCOCC5)c(C#N)c4)c3o2)cc1` [Compound A21, N-(2-tert-butoxy-ethyl)-4-{7-[3-cyano-4-(tetrahydro-pyran-4-yloxy)-phenyl]-furo[3,2-b]pyridin-2-yl}-benzamide] yielded an IC50 (IKKε) of 300 to 3000 nM and an IC50 [1] of 300 to 3000 nM.
`COCCNC(=O)c1ccc(-c2cc3nccc(-c4ccc(OC5CCOCC5)c(C#N)c4)c3o2)cc1` [Compound A22, 4-{7-[3-cyano-4-(tetrahydro-pyran-4-yloxy)-phenyl]-furo[3,2-b]pyridin-2-yl}-N-(2-methoxy-ethyl)-benzamide] was tested, and the IC50 (IKKε) was 300 to 3000 nM and the IC50 [1] was 300 to 3000 nM.
With `CN(C)C(=O)c1ccc(-c2cc3nccc(-c4ccc(OC5CCOCC5)c(C#N)c4)c3o2)cc1` [Compound A23, 4-{7-[3-cyano-4-(tetrahydro-pyran-4-yloxy)-phenyl]-furo[3,2-b]pyridin-2-yl}-N,N-dimethyl-benzamide] the IC50 (IKKε) was < 300 nM and the IC50 [1] was < 300 nM.
